Article PMC3319116 (Journal of Medicinal Chemistry, 2012)

System: MDCK-mdr1 cells
Assay: MDCK-mdr1 permeability assay
Conditions: apical to basal, 3.16 μM, 1 hr, 37°C, pH 7.4; % transported

Compound	MDCK-mdr1 permeability A to B
Cc1c(C(=O)NCC2CCC(CNS(N)(=O)=O)CC2)nn(-c2ccc(Cl)cc2Cl)c1-c1ccc(Cl)cc1 (centres unmarked) [Compound 8]	<1%
Cc1c(C(=O)NCC2CCC(CNS(C)(=O)=O)CC2)nn(-c2ccc(Cl)cc2Cl)c1-c1ccc(Cl)cc1 (centres unmarked) [Compound 7]	<1%
